As usually defined, the MIC is the least concentration at which growth counts as inhibited.

Where two headings read alike, the source gives them in different places.

Assay [1] deals with Escherichia coli (strain JM109). Briefly: MIC determination against Escherichia coli (Andrews protocol). In kind it is cell-based. Conditions: for MIC: Escherichia coli, read-out: MIC E. coli. The procedure: (§1) Minimum Inhibitory Concentrations (MICs) for the compounds prepared were determined against Escherichia coli (strain JM109) and Staphylococcus aureus (strain 9518) using the protocols described by Andrews (J. Antimicrob. Chemother., 2001, 48, Suppl. S1, 5-16).

Assay [2] has as its system Staphylococcus aureus (strain 9518). As to the kind of experiment: MIC determination against Staphylococcus aureus (Andrews protocol). In kind it is cell-based. Conditions: for MIC: Staphylococcus aureus, read-out: MIC S. aureus. The method, then:
as §1

[3] abbreviates: Staphylococcus aureus strain 9518.

For `N=C(N)NCc1cccc(OCc2ccc(Cl)cc2Cl)c1.O=C(O)C(F)(F)F` [Compound 4d, 1-({3-[(2,4-dichlorophenyl)methoxy]phenyl}methyl)guanidine 2,2,2-trifluoroacetate], the minimal inhibitory concentration (MIC) was 1 to 10 µg/mL in assay [1] and > 100 µg/mL in assay [2].

On to `N=C(N)NCc1cccc(N)c1.O=C(O)C(F)(F)F` [Compound 53a, Amino((3-aminobenzyl)amino)methaniminium 2,2,2-trifluoroacetate], for which the MIC in assay [1] and in assay [2] was 32 to 100 µg/mL throughout.

For `CN(Cc1cccc(OCc2cccc(Cl)c2Cl)c1)C(=N)N.Cl` [Compound 10a, 1-({3-[(2,3-dichlorophenyl)methoxy]phenyl}methyl)-1-methylguanidine hydrochloride], the values for the MIC in assay [1] (Escherichia coli strain JM109) and in assay [2] (setting [3]) were 32 to 100 µg/mL and 10 to 32 µg/mL, respectively.

`CC(C)(C)OC(=O)NC(=N)N1CCc2ccc(-c3ccc(C(C)(C)C)cc3)cc2C1.O=C(O)C(F)(F)F` [Compound 28, tert-butyl N-[7-(4-tert-butylphenyl)-1,2,3,4-tetrahydroisoquinoline-2-carboximidoyl]carbamate 2,2,2-trifluoroacetate]: the figures for the MIC in assay [1] (Escherichia coli strain JM109) and in assay [2] (setting [3]) were > 100 µg/mL and 32 to 100 µg/mL, respectively.

In the case of `Cl.N=C(N)N/N=C/c1cccc(OCc2cccc(Cl)c2)c1Cl` [Compound 51m, (E)-Amino(2-(2-chloro-3-((3-chlorobenzyl)oxy)benzylidene)hydrazinyl) methaniminium chloride], the MIC in assay [1] (Escherichia coli strain JM109) lay in the range of 1 to 10 µg/mL; in assay [2] (setting [3]) it was 10 to 32 µg/mL.

Turning to `N=C(N)NCc1cccc(OCc2ccc(F)cc2)c1.O=C(O)C(F)(F)F` [Compound 4k, 1-({3-[(4-fluorophenyl)methoxy]phenyl}methyl)guanidine 2,2,2-trifluoroacetate], the MIC was 10 to 32 µg/mL in assay [1] and 32 to 100 µg/mL in assay [2].

As for `Cl.N=C(N)N1CCc2c(cccc2OCc2cccc(Cl)c2Cl)C1` [Compound 38, 5-[(2,3-dichlorophenyl)methoxy]-1,2,3,4-tetrahydroisoquinoline-2-carboximidamide hydrochloride], the MIC in assay [1] (Escherichia coli strain JM109) and in assay [2] (setting [3]) was 10 to 32 µg/mL in each case.

In the case of `N=C(N)NCc1cccc(NC(=O)c2ccccc2)c1.O=C(O)C(F)(F)F` [Compound 57a, Amino((3-benzamidobenzyl)amino)methaniminium 2,2,2-trifluoroacetate], the MIC in assay [1] and in assay [2] was 32 to 100 µg/mL each time.

On to `N=C(N)N1CCc2ccc(Br)cc2C1.O=C(O)C(F)(F)F` [Compound 26, 7-bromo-1,2,3,4-tetrahydroisoquinoline-2-carboximidamid 2,2,2-trifluoroacetate], for which the MIC in assay [1] (Escherichia coli strain JM109) and in assay [2] (setting [3]) was > 100 µg/mL each time.

As to `Cl.N=C(N)N/N=C/c1nccn1Cc1ccc(C(F)(F)F)cc1` [Compound 61d, (E)-Amino(2-((1-(4-(trifluoromethyl)benzyl)-1H-imidazol-2-yl)methylene) hydrazinyl)methaniminium chloride], the figures for the MIC in assay [1] (Escherichia coli strain JM109) and in assay [2] (setting [3]) were 1 to 10 µg/mL and 10 to 32 µg/mL, respectively.

Take `N=C(N)NOCc1cccc(Oc2ccccc2)c1.O=C(O)C(F)(F)F` [Compound 41b, 1-[(3-phenoxyphenyl)methoxy]guanidine 2,2,2-trifluoroacetate]: the minimal inhibitory concentration (MIC) in assay [1] (Escherichia coli strain JM109) and in assay [2] (setting [3]) was > 100 µg/mL in each case.

Consider `N=C(N)NCc1cccc(OCc2ccccc2)c1.O=C(O)C(F)(F)F` [Compound 4a, 1-{[3-(benzyloxy)phenyl]methyl}guanidine 2,2,2-trifluoroacetate], for which the MIC in assay [1] was > 100 µg/mL; in assay [2], 1 to 10 µg/mL.

With `COc1ccc(CNC(=N)N)cc1OCc1ccc(Cl)cc1.O=C(O)C(F)(F)F` [Compound 4n, 1-({3-[(4-chlorophenyl)methoxy]-4-methoxyphenyl}methyl)guanidine 2,2,2-trifluoroacetate], the MIC in assay [1] was > 100 µg/mL; in assay [2], 32 to 100 µg/mL.

For `N=C(N)NC(=O)c1cccc(OCc2ccccc2)c1.O=C(O)C(F)(F)F` [Compound 47, 3-(benzyloxy)-N-carbamimidoylbenzamide 2,2,2-trifluoroacetate], the minimum inhibitory concentration (MIC) in assay [1] was in the range of 32 to 100 µg/mL; in assay [2], 10 to 32 µg/mL.

Regarding `CNC(=N)NCc1cccc(OCc2cccc(Cl)c2Cl)c1.O=C(O)C(F)(F)F` [Compound 15, 3-({3-[(2,3-dichlorophenyl)methoxy]phenyl}methyl)-1-methylguanidine 2,2,2-trifluoroacetate], the MIC in assay [1] (Escherichia coli strain JM109) and in assay [2] (setting [3]) was 10 to 32 µg/mL each time.

On to `N=C(N)NCc1cccc(NS(=O)(=O)c2cccc(Cl)c2Cl)c1.O=C(O)C(F)(F)F` [Compound 55g, Amino((3-((2,3-dichlorophenyl)sulfonamido)benzyl)amino)methaniminium 2,2,2-trifluoroacetate], for which the MIC in assay [1] (Escherichia coli strain JM109) and in assay [2] (setting [3]) was 32 to 100 µg/mL each time.

In the case of `N=C(N)NCc1cccc(NS(=O)(=O)c2cccc(Cl)c2)c1.O=C(O)C(F)(F)F` [Compound 55e, Amino((3-((3-chlorophenyl)sulfonamido)benzyl)amino)methaniminium 2,2,2-trifluoroacetate], the minimal inhibitory concentration (MIC) in assay [1] (Escherichia coli strain JM109) and in assay [2] (setting [3]) was 32 to 100 µg/mL each time.

Turning to `N=C(N)NCc1cccc(OCc2cc(Cl)ccc2Cl)c1.O=C(O)C(F)(F)F` [Compound 4f, 1-({3-[(2,5-dichlorophenyl)methoxy]phenyl}methyl)guanidine 2,2,2-trifluoroacetate], the values for the minimum inhibitory concentration (MIC) in assay [1] and in assay [2] were 10 to 32 µg/mL and 1 to 10 µg/mL, respectively.

On to `Cl.N=C(N)N/N=C/c1nccn1Cc1ccc(Cl)cc1` [Compound 61b, (E)-Amino(2-((1-(4-chlorobenzyl)-1H-imidazol-2-yl)methylene)hydrazinyl) methaniminium chloride], for which the MIC in assay [1] (Escherichia coli strain JM109) and in assay [2] (setting [3]) was 10 to 32 µg/mL in each case.

In the case of `N=C(N)NCc1c(F)ccc(OCc2cccc(C(F)(F)F)c2)c1F.O=C(O)C(F)(F)F` [Compound 4p, 1-[(2,6-difluoro-3-{[3-(trifluoromethyl)phenyl]methoxy}phenyl)methyl]guanidine 2,2,2-trifluoroacetate], the MIC in assay [1] and in assay [2] was 1 to 10 µg/mL throughout.

For `N=C(N)Nc1ccc(CNC(=O)c2ccccc2)cc1.O=C(O)C(F)(F)F` [Compound 59a, Amino((4-(benzamidomethyl)phenyl)amino)methaniminium 2,2,2-trifluoroacetate], the MIC in assay [1] and in assay [2] was 32 to 100 µg/mL in each case.

As to `COc1ccc(CNC(=N)N)cc1OCc1cccc(Cl)c1.O=C(O)C(F)(F)F` [Compound 4m, 1-({3-[(3-chlorophenyl)methoxy]-4-methoxyphenyl}methyl)guanidine 2,2,2-trifluoroacetate], the MIC in assay [1] and in assay [2] was > 100 µg/mL in each case.

In the case of `Cl.N=C(N)N/N=C/c1cccn1Cc1ccc(C(F)(F)F)cc1` [Compound 61h, (E)-Amino(2-((1-(4-(trifluoromethyl)benzyl)-1H-pyrrol-2-yl)methylene) hydrazinyl)methaniminium chloride], the MIC in assay [1] (Escherichia coli strain JM109) and in assay [2] (setting [3]) was 10 to 32 µg/mL throughout.

Consider `COCCN(Cc1cccc(OCc2cccc(Cl)c2Cl)c1)C(=N)N.O=C(O)C(F)(F)F` [Compound 9b, 1-({3-[(2,3-dichlorophenyl)methoxy]phenyl}methyl)-1-(2-methoxyethyl) guanidine 2,2,2-trifluoroacetate], for which the MIC in assay [1] (Escherichia coli strain JM109) and in assay [2] (setting [3]) was 10 to 32 µg/mL throughout.

As for `Cl.N=C(N)N/N=C/c1nccn1Cc1cccc(C(F)(F)F)c1` [Compound 61c, (E)-Amino(2-((1-(3-(trifluoromethyl)benzyl)-1H-imidazol-2-yl)methylene) hydrazinyl)methaniminium chloride], the MIC in assay [1] (Escherichia coli strain JM109) and in assay [2] (setting [3]) was 32 to 100 µg/mL throughout.

Consider `N=C(N)NCc1ccc(N)cc1.O=C(O)C(F)(F)F` [Compound 53b, Amino((4-aminobenzyl)amino)methaniminium 2,2,2-trifluoroacetate], for which the MIC in assay [1] and in assay [2] was 32 to 100 µg/mL each time.

For the molecule `N=C(N)Nc1ccc(CNS(=O)(=O)c2ccccc2)cc1.O=C(O)C(F)(F)F` [Compound 59b, Amino((4-(phenylsulfonamidomethyl)phenyl)amino)methaniminium 2,2,2-trifluoroacetate], the MIC in assay [1] and in assay [2] was 32 to 100 µg/mL each time.

As to `N=C(N)NCc1ccc(NC(=O)c2ccccc2)cc1.O=C(O)C(F)(F)F` [Compound 57b, Amino((4-benzamidobenzyl)amino)methaniminium 2,2,2-trifluoroacetate], the MIC in assay [1] and in assay [2] was 32 to 100 µg/mL each time.

`Cl.N=C(N)N/N=C/c1cccc(OCc2ccc(C(F)(F)F)cc2)c1` [Compound 49f, (E)-Amino(2-(3-((4-(trifluoromethyl)benzyl)oxy)benzylidene)hydrazinyl) methaniminium chloride]: the “MIC E. coli” value in assay [1] (Escherichia coli strain JM109) is recorded as “++ (MIC 10-32 μg/mL)”. In addition, in assay [2] (setting [3]), the “MIC S. aureus” value is “+++ (MIC 1-10 μg/mL)”.

Regarding `N=C(N)NOCc1cccc(-c2ccccc2)c1.O=C(O)C(F)(F)F` [Compound 41a, 1-[(3-phenylphenyl)methoxy]guanidine 2,2,2-trifluoroacetate], the MIC in assay [1] (Escherichia coli strain JM109) and in assay [2] (setting [3]) was > 100 µg/mL throughout.

Take `N=C(N)NCc1ccc(OCc2ccc(Cl)c(Cl)c2)cc1.O=C(O)C(F)(F)F` [Compound 19d, 1-(4-((3,4-dichlorobenzyl)oxy)benzyl)guanidine 2,2,2-trifluoroacetate]: the MIC in assay [1] (Escherichia coli strain JM109) was 10 to 32 µg/mL; in assay [2] (setting [3]), 1 to 10 µg/mL.

Turning to `N=C(N)NCc1ccc(NS(=O)(=O)c2ccc(Cl)cc2)cc1.O=C(O)C(F)(F)F` [Compound 55b, Amino((4-((4-chlorophenyl)sulfonamido)benzyl)amino)methaniminium 2,2,2-trifluoroacetate], the MIC in assay [1] (Escherichia coli strain JM109) and in assay [2] (setting [3]) was 32 to 100 µg/mL each time.

Take `N=C(N)N1CCc2ccc(OCc3cccc(Cl)c3Cl)cc2C1.O=C(O)C(F)(F)F` [Compound 33, 7-[(2,3-dichlorophenyl)methoxy]-1,2,3,4-tetrahydroisoquinoline-2-carboximidamide 2,2,2-trifluoroacetate]: the MIC in assay [1] (Escherichia coli strain JM109) and in assay [2] (setting [3]) was 1 to 10 µg/mL in each case.

For the origin of these results see patent US20170342025A1, “ANTIMICROBIAL COMPOUNDS, COMPOSITIONS AND METHODS” (Swansea University, priority 2014, published 2017).
